Source: article PMC12310023 (PLOS Neglected Tropical Diseases, 2025)

Test system: NLuc-expressing C. parvum
Test: NLuc C. parvum IFNγ-KO mouse infection model, oocyst shedding
Format: in vivo

## CC(C)(CO)Cn1nc(-c2ccc3cc(OC4CC4)ccc3c2)c(C(N)=O)c1N [compound 1708]
15 mg/kg x 3 days, group I, day 6 p.i., Cp Mouse Efficacy 2
  RLU standardized by fecal weight: 251957 RLU
15 mg/kg x 3 days, group I, day 7 p.i., Cp Mouse Efficacy 2
  RLU standardized by fecal weight: 85920 RLU
15 mg/kg x 3 days, group I, day 8 p.i., Cp Mouse Efficacy 2
  RLU standardized by fecal weight: 79354 RLU
15 mg/kg x 3 days, group I, day 9 p.i., Cp Mouse Efficacy 2
  RLU standardized by fecal weight: 5065 RLU
15 mg/kg x 3 days, group I, day 10 p.i., Cp Mouse Efficacy 2
  RLU standardized by fecal weight: 1311 RLU
15 mg/kg x 3 days, group I, day 13 p.i., Cp Mouse Efficacy 2
  RLU standardized by fecal weight: 474 RLU
15 mg/kg x 3 days, group I, day 15 p.i., Cp Mouse Efficacy 2
  RLU standardized by fecal weight: 57 RLU
15 mg/kg x 3 days, group I, day 17 p.i., Cp Mouse Efficacy 2
  RLU standardized by fecal weight: 57 RLU
15 mg/kg x 3 days, group I, day 20 p.i., Cp Mouse Efficacy 2
  RLU standardized by fecal weight: 227 RLU
30 mg/kg QD x3, group G, Day 6, Cp Mouse Efficacy 1
  RLU Raw: 1295216 RLU
30 mg/kg QD x3, group G, Day 7, Cp Mouse Efficacy 1
  RLU Raw: 1222624 RLU
30 mg/kg QD x3, group G, Day 8, Cp Mouse Efficacy 1
  RLU Raw: 619376 RLU
30 mg/kg QD x3, group G, Day 9, Cp Mouse Efficacy 1
  RLU Raw: 66208 RLU
30 mg/kg QD x3, group G, Day 10, Cp Mouse Efficacy 1
  RLU Raw: 17152 RLU
30 mg/kg QD x3, group G, Day 13, Cp Mouse Efficacy 1
  RLU Raw: 2912 RLU
30 mg/kg QD x3, group G, Day 15, Cp Mouse Efficacy 1
  RLU Raw: 4896 RLU
30 mg/kg QD x3, group G, Day 17, Cp Mouse Efficacy 1
  RLU Raw: 1792 RLU
30 mg/kg QD x3, group G, Day 20, Cp Mouse Efficacy 1
  RLU Raw: 7008 RLU
30 mg/kg QD x3, group G, day 6 p.i., Cp Mouse Efficacy 1
  RLU standardized by fecal weight: 182425 RLU
30 mg/kg QD x3, group G, day 7 p.i., Cp Mouse Efficacy 1
  RLU standardized by fecal weight: 166343 RLU
30 mg/kg QD x3, group G, day 8 p.i., Cp Mouse Efficacy 1
  RLU standardized by fecal weight: 154844 RLU
30 mg/kg QD x3, group G, day 9 p.i., Cp Mouse Efficacy 1
  RLU standardized by fecal weight: 14087 RLU
30 mg/kg QD x3, group G, day 10 p.i., Cp Mouse Efficacy 1
  RLU standardized by fecal weight: 2907 RLU
30 mg/kg QD x3, group G, day 13 p.i., Cp Mouse Efficacy 1
  RLU standardized by fecal weight: 391 RLU
30 mg/kg QD x3, group G, day 15 p.i., Cp Mouse Efficacy 1
  RLU standardized by fecal weight: 401 RLU
30 mg/kg QD x3, group G, day 17 p.i., Cp Mouse Efficacy 1
  RLU standardized by fecal weight: 224 RLU
30 mg/kg QD x3, group G, day 20 p.i., Cp Mouse Efficacy 1
  RLU standardized by fecal weight: 904 RLU
30 mg/kg x 1 days, group F, Day 6, Cp Mouse Efficacy 2
  RLU Raw: 255712 RLU
30 mg/kg x 1 days, group F, Day 7, Cp Mouse Efficacy 2
  RLU Raw: 157696 RLU
30 mg/kg x 1 days, group F, Day 8, Cp Mouse Efficacy 2
  RLU Raw: 335600 RLU
30 mg/kg x 1 days, group F, Day 9, Cp Mouse Efficacy 2
  RLU Raw: 101760 RLU
30 mg/kg x 1 days, group F, Day 10, Cp Mouse Efficacy 2
  RLU Raw: 181040 RLU
30 mg/kg x 1 days, group F, Day 13, Cp Mouse Efficacy 2
  RLU Raw: 15056 RLU
30 mg/kg x 1 days, group F, Day 15, Cp Mouse Efficacy 2
  RLU Raw: 22080 RLU
30 mg/kg x 1 days, group F, Day 17, Cp Mouse Efficacy 2
  RLU Raw: 4144 RLU
30 mg/kg x 1 days, group F, Day 20, Cp Mouse Efficacy 2
  RLU Raw: 2768 RLU
30 mg/kg x 1 days, group F, day 6 p.i., Cp Mouse Efficacy 2
  RLU standardized by fecal weight: 39645 RLU
30 mg/kg x 1 days, group F, day 7 p.i., Cp Mouse Efficacy 2
  RLU standardized by fecal weight: 24640 RLU
30 mg/kg x 1 days, group F, day 8 p.i., Cp Mouse Efficacy 2
  RLU standardized by fecal weight: 55471 RLU
30 mg/kg x 1 days, group F, day 9 p.i., Cp Mouse Efficacy 2
  RLU standardized by fecal weight: 16820 RLU
30 mg/kg x 1 days, group F, day 10 p.i., Cp Mouse Efficacy 2
  RLU standardized by fecal weight: 20342 RLU
30 mg/kg x 1 days, group F, day 13 p.i., Cp Mouse Efficacy 2
  RLU standardized by fecal weight: 2841 RLU
30 mg/kg x 1 days, group F, day 15 p.i., Cp Mouse Efficacy 2
  RLU standardized by fecal weight: 3046 RLU
30 mg/kg x 1 days, group F, day 17 p.i., Cp Mouse Efficacy 2
  RLU standardized by fecal weight: 975 RLU
30 mg/kg x 1 days, group F, day 20 p.i., Cp Mouse Efficacy 2
  RLU standardized by fecal weight: 410 RLU
60 mg/kg QD x3, group F, Day 6, Cp Mouse Efficacy 1
  RLU Raw: 2614768 RLU
60 mg/kg QD x3, group F, Day 7, Cp Mouse Efficacy 1
  RLU Raw: 2391472 RLU
60 mg/kg QD x3, group F, Day 8, Cp Mouse Efficacy 1
  RLU Raw: 411984 RLU
60 mg/kg QD x3, group F, Day 9, Cp Mouse Efficacy 1
  RLU Raw: 18336 RLU
60 mg/kg QD x3, group F, Day 10, Cp Mouse Efficacy 1
  RLU Raw: 2272 RLU
60 mg/kg QD x3, group F, Day 13, Cp Mouse Efficacy 1
  RLU Raw: 576 RLU
60 mg/kg QD x3, group F, Day 15, Cp Mouse Efficacy 1
  RLU Raw: 304 RLU
60 mg/kg QD x3, group F, Day 17, Cp Mouse Efficacy 1
  RLU Raw: 144 RLU
60 mg/kg QD x3, group F, Day 20, Cp Mouse Efficacy 1
  RLU Raw: 224 RLU
60 mg/kg QD x3, group F, day 6 p.i., Cp Mouse Efficacy 1
  RLU standardized by fecal weight: 261477 RLU
60 mg/kg QD x3, group F, day 7 p.i., Cp Mouse Efficacy 1
  RLU standardized by fecal weight: 201812 RLU
60 mg/kg QD x3, group F, day 8 p.i., Cp Mouse Efficacy 1
  RLU standardized by fecal weight: 45026 RLU
60 mg/kg QD x3, group F, day 9 p.i., Cp Mouse Efficacy 1
  RLU standardized by fecal weight: 3245 RLU
60 mg/kg QD x3, group F, day 10 p.i., Cp Mouse Efficacy 1
  RLU standardized by fecal weight: 215 RLU
60 mg/kg QD x3, group F, day 13 p.i., Cp Mouse Efficacy 1
  RLU standardized by fecal weight: 93 RLU
60 mg/kg QD x3, group F, day 15 p.i., Cp Mouse Efficacy 1
  RLU standardized by fecal weight: 78 RLU
60 mg/kg QD x3, group F, day 17 p.i., Cp Mouse Efficacy 1
  RLU standardized by fecal weight: 33 RLU
60 mg/kg QD x3, group F, day 20 p.i., Cp Mouse Efficacy 1
  RLU standardized by fecal weight: 67 RLU
60 mg/kg x 1 day, group E, Day 6, Cp Mouse Efficacy 2
  RLU Raw: 814080 RLU
60 mg/kg x 1 day, group E, Day 7, Cp Mouse Efficacy 2
  RLU Raw: 339152 RLU
60 mg/kg x 1 day, group E, Day 8, Cp Mouse Efficacy 2
  RLU Raw: 54176 RLU
60 mg/kg x 1 day, group E, Day 9, Cp Mouse Efficacy 2
  RLU Raw: 52848 RLU
60 mg/kg x 1 day, group E, Day 10, Cp Mouse Efficacy 2
  RLU Raw: 91232 RLU
60 mg/kg x 1 day, group E, Day 13, Cp Mouse Efficacy 2
  RLU Raw: 5456 RLU
60 mg/kg x 1 day, group E, Day 15, Cp Mouse Efficacy 2
  RLU Raw: 4592 RLU
60 mg/kg x 1 day, group E, Day 17, Cp Mouse Efficacy 2
  RLU Raw: 5520 RLU
60 mg/kg x 1 day, group E, Day 20, Cp Mouse Efficacy 2
  RLU Raw: 2336 RLU
60 mg/kg x 1 day, group E, day 6 p.i., Cp Mouse Efficacy 2
  RLU standardized by fecal weight: 144085 RLU
60 mg/kg x 1 day, group E, day 7 p.i., Cp Mouse Efficacy 2
  RLU standardized by fecal weight: 44625 RLU
60 mg/kg x 1 day, group E, day 8 p.i., Cp Mouse Efficacy 2
  RLU standardized by fecal weight: 11405 RLU
60 mg/kg x 1 day, group E, day 9 p.i., Cp Mouse Efficacy 2
  RLU standardized by fecal weight: 12435 RLU
60 mg/kg x 1 day, group E, day 10 p.i., Cp Mouse Efficacy 2
  RLU standardized by fecal weight: 12329 RLU
60 mg/kg x 1 day, group E, day 13 p.i., Cp Mouse Efficacy 2
  RLU standardized by fecal weight: 774 RLU
60 mg/kg x 1 day, group E, day 15 p.i., Cp Mouse Efficacy 2
  RLU standardized by fecal weight: 399 RLU
60 mg/kg x 1 day, group E, day 17 p.i., Cp Mouse Efficacy 2
  RLU standardized by fecal weight: 726 RLU
60 mg/kg x 1 day, group E, day 20 p.i., Cp Mouse Efficacy 2
  RLU standardized by fecal weight: 525 RLU
